Test results reported in US12077551B2, “Zinc complex, preparation thereof and use thereof for trerapy of human and animal diseases” (OBSCHESTVO S OGRANICHENNOI OTVETSTVENNOSTIYU “Z …, priority 2018, dated 2024).

Tests used:
[1] = biological target: recombinant intracellular human glutaminyl cyclase (Homo sapiens, UniProt Q9NXS2); assay: Enzymatic activity of human glutaminyl cyclase in vitro (fluorescent substrate Gln-bNA); format: biochemical; details: 25° C., 50 μM Gln-bNA, pH 8.0, enzyme incubated with compound for 5 minutes; read-out: IC50, inhibition of glutaminyl cyclase activity
Sequence of recombinant intracellular human glutaminyl cyclase (Q9NXS2 whole entry): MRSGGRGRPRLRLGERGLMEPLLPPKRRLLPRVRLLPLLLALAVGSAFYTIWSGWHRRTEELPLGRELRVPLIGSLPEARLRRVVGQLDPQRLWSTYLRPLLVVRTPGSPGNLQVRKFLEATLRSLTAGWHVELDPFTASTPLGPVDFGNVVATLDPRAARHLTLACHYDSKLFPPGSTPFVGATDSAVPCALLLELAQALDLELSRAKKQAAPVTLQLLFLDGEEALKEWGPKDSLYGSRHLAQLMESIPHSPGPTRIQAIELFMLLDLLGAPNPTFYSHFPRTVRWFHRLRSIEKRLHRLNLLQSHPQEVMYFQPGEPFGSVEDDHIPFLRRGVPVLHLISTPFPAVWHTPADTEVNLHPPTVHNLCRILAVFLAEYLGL
Method: In the studies of the effect of Compound 1 (which is the subject of the present invention) on the enzymatic activity of glutaminyl cyclase in vitro, the direct inhibitory effect of Compound 1 on recombinant intracellular human glutaminyl cyclase was discovered.
The activity of glutaminyl cyclase at various Compound 1 concentrations was studied at 25° C. using the fluorescent substrate L-glutaminyl 2-naphthylamide (Gln-bNA) [Anal Biochem. 2002 Apr. 1; 303 (1): 49-56]. The reaction mixture with a volume of 100 μl contained 50 μM of a fluorogenic substrate; ˜0.2 units of human pyroglutaminyl aminopeptidase (1 unit is defined as the amount that hydrolyzes 1 micromole of pGlu-bNA per minute), and an aliquot of recombinant intracellular human glutaminyl cyclase (gQC) in […] trisaminomethane HCl and 5% glycerol, pH 8.0. The reaction was initiated by adding an aliquot of glutaminyl cyclase incubated with Compound 1 for 5 minutes to the reaction mixture.
Further progression of the reaction was monitored spectrophotometrically (excitation and emission wavelengths were 320 and 410 nm). Enzymatic activity was determined by the amount of released 2-naphthylamide (bNA), calculated based on the calibration curve. IC50 values were calculated using non-linear regression of the “inhibitor concentration”-“enzyme activity” curve.

[2] = tested on: mouse atopic dermatitis model; assay: Mouse atopic dermatitis model (DNCB), histological analysis of the affected ear; format: in vivo, male mice of the balb/c strain
Method: Experimental technique. The study of Compound 1 activity in the model of atopic dermatitis was carried out using the standard technique [Evidence-based Complementary and Alternative Medicine. 2012. Article ID 545497, 9 pages). For the experimental group, we selected animals of average appearance without signs of deviations, with the weight of the animal being no more than ±20% from the average value within the sex. On days 0 and 12 of the experiment, male mice of the balb/c strain were treated with 100 μl of a 2% solution of 1-chloro-2,4-dinitrobenzene (DNCB) in ethanol applied to the previously shaved areas on the back to sensitize the body. On the 17th day, 20 μl of 2% alcohol solution of DNCB was applied to the “test” right ear of the animals twice with an interval of 1 hour. Compound 1 cream with an active substance content of 0.01 wt % was administered topically, to the “test” right ear, twice: 1 and 13 hours after the last application of DNCB to the ear. The following were used as a comparison/reference/control medications: Methylprednisolone aceponate ([…] ointment for external use), pyrithione zinc (0.2% cream for external use), pimecrolimus (1% cream for external use) and cream for external use containing gamma-L-glutamylhistamine 0.01%. On the 18th day, the animals were euthanized and the histological analysis of the affected ear was performed. Histological sections with a thickness of 5 μm were stained with hematoxylin-eosin. […] The data obtained were verified using the Grubbs test, also known as the maximum normalized residual test a test used to detect outliers in a data set. The values identified as “outliers” in this test were not used for further analysis. Descriptive statistics were used for all data: the mean (M) and standard error of the mean (m) were calculated. The normal distribution of the values obtained in the experiment was verified using the Kolmogorov-Smirnov test. In the case of a normal distribution, Student's t-test was used to assess intergroup differences. […] Differences were determined at a 5% confidence level.

[3] = Solubility and dissociation of the product (NMR solvents, D2O spectrum); format: physicochemical
Source text: The prepared resulting product is insoluble in solvents which are used to record NMR spectra.
It mainly contains the residual signal of the non-deuterated solvent, and low-intensity signals corresponding to the original gamma-L-glutamylhistamine.

IC50 [1]: 26 µM
solubility in solvents used to record NMR spectra ([3]; product of Example 2): insoluble
dissociation in aqueous suspensions ([3]; product of Example 2, D2O NMR spectrum): insignificant dissociation
Substance: zinc complex of gamma-L-glutamylhistamine [Compound 1]
action in comparison with the gamma-L-glutamylhistamine ligand ([2]; 0.01 wt % cream vs cream containing gamma-L-glutamylhistamine 0.01%): significant improvement
effectiveness in comparison with the reference drugs methylprednisolone aceponate, zinc pyrithione and pimecrolimus ([2]; 0.01 wt % cream vs reference ointment/creams): superior performance
influx of inflammatory cells (monocytes, dendritic cells, eosinophils and neutrophils) into the epidermis and dermis of the skin ([2]; 0.01 wt % cream, topical to right ear, 1 and 13 hours after last DNCB application, histology on day 18): to the level of intact animals
